Patent US20260022142A1, “MACROCYCLIC IMMUNOMODULATORS” (Bristol-Myers Squibb Company, priority 2022, published 2026)
Bridge positions count the residues as written; N and C are the ends. Square brackets hold non-standard residues; d marks the D form. Peptide text beside a SMILES is read from it. * marks the point of attachment. Bip = N[C@@H](Cc1ccc(-c2ccccc2)cc1)C(=O)O; Phe(3-Me) = Cc1cccc(C[C@H](N)C(=O)O)c1; Cha = N[C@@H](CC1CCCCC1)C(=O)O; Cit = NC(=O)NCCC[C@H](N)C(=O)O; Carboxymethyl = O=C(O)C*; Orn = NCCC[C@H](N)C(=O)O; Aun = NCCCCCCCCCCC(=O)O; Dab = NCC[C@H](N)C(=O)O; Dap = NC[C@H](N)C(=O)O

biological target: T1, PD-1/PD-L1 interaction (PE-labeled human PD-L1-Ig binding to Jurkat cell line over-expressing human PD-1) (Homo sapiens, UniProt Q15116); assay: Jurkat-PD-1 Cell Binding High-Content Screening Assay (CBA); type: cell-based; conditions: Jurkat cell line over-expressing human PD-1; PE-labeled PD-L1-Ig 20 nM final; read-out: Jurkat hPD1-PDL1 IC50
T1 construct: expressed in transfected cells; host or cells: Jurkat
Summary of the method: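 Binding of fluorescent PD-L1-Ig (phycoerythrin on Ig tag, 20 nM final, 1 h) measured by high-content imaging of fixed, Hoechst-counterstained Jurkat-hPD-1 cells. Compound added 2 h at 37° C beforehand, in DMEM with 10% fetal calf serum.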

T1 sequence (Q15116 25-288): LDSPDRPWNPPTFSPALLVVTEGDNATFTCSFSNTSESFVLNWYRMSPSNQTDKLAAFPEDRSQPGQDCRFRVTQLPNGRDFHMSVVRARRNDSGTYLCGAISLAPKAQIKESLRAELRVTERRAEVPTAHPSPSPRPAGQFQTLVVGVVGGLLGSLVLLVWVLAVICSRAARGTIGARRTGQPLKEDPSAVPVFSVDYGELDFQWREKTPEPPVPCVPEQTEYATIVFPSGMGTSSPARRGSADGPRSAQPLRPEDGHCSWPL

SMILES	IC50
Cc1cccc(C[C@@H]2NC(=O)[C@H](CC(=O)O)NC(=O)[C@H](Cc3ccc(OCC(=O)O)cc3)NC(=O)[C@H](CN)NC(=O)CSC[C@@H](C(=O)N[C@@H](C)C(=O)N[C@@H](CCN)C(=O)NCC(=O)NCCCCCCCCCCC(=O)O)NC(=O)[C@H]([C@@H](C)O)NC(=O)[C@H](C(C)C)NC(=O)[C@H](CC3CCCCC3)NC(=O)[C@H](CCN)NC(=O)[C@@H](CC(C)C)NC(=O)[C@H](CCCN)NC(=O)[C@H](CCCNC(N)=O)NC(=O)[C@H](Cc3ccc(-c4ccccc4)cc3)NC(=O)[C@H](C(C)C)NC2=O)c1 [Compound 1051] ({CH2CO}-[Dap]Y(Carboxymethyl)D[Phe(3-Me)]V[Bip][Cit][Orn][dL][Dab][Cha]VTCA[Dab]G[Aun]-OH; thioether N-14)	12.3 nM
Cc1cccc(C[C@@H]2NC(=O)[C@H](CC(=O)O)NC(=O)[C@H](Cc3ccc(OCC(=O)O)cc3)NC(=O)[C@H](CN)NC(=O)CSC[C@@H](C(=O)N[C@@H](C)C(=O)N[C@@H](CN)C(=O)NCC(=O)NCCCCCCCCCCC(=O)O)NC(=O)[C@H]([C@@H](C)O)NC(=O)[C@H](C(C)C)NC(=O)[C@H](CC3CCCCC3)NC(=O)[C@H](CCN)NC(=O)[C@@H](CC(C)C)NC(=O)[C@H](CCCN)NC(=O)[C@H](CCCNC(N)=O)NC(=O)[C@H](Cc3ccc(-c4ccccc4)cc3)NC(=O)[C@H](C(C)C)NC2=O)c1 [Compound 1053] ({CH2CO}-[Dap]Y(Carboxymethyl)D[Phe(3-Me)]V[Bip][Cit][Orn][dL][Dab][Cha]VTCA[Dap]G[Aun]-OH; thioether N-14)	8.9 nM
Cc1cccc(C[C@@H]2NC(=O)[C@H](CC(=O)O)NC(=O)[C@H](Cc3ccc(OCC(=O)O)cc3)NC(=O)[C@H](Cc3ccc(OCC(=O)O)cc3)NC(=O)CSC[C@@H](C(=O)NCC(=O)N[C@@H](CCN)C(=O)NCCCCCCCCCCC(=O)O)NC(=O)[C@H](CO)NC(=O)[C@H](C(C)C)NC(=O)[C@H](CC3CCCCC3)NC(=O)[C@H](CCN)NC(=O)[C@@H](CC(C)C)NC(=O)[C@H](CCCN)NC(=O)[C@H](C(C)C)NC(=O)[C@H](Cc3ccc(-c4ccccc4)cc3)NC(=O)[C@H](CC(C)C)NC2=O)c1 [Compound 1054] ({CH2CO}-Y(Carboxymethyl)Y(Carboxymethyl)D[Phe(3-Me)]L[Bip]V[Orn][dL][Dab][Cha]VSCG[Dab][Aun]-OH; thioether N-14)	31.3 nM
Cc1cccc(C[C@@H]2NC(=O)[C@H](CC(=O)O)NC(=O)[C@H](Cc3ccc(OCC(=O)O)cc3)NC(=O)[C@H](CN)NC(=O)CSC[C@@H](C(=O)N[C@@H](C)C(=O)N[C@@H](CN)C(=O)NCCCCCCCCCCC(=O)O)NC(=O)[C@H]([C@@H](C)O)NC(=O)[C@H](C(C)C)NC(=O)[C@H](CC3CCCCC3)NC(=O)[C@H](CCN)NC(=O)[C@@H](CC(C)C)NC(=O)[C@H](CCCN)NC(=O)[C@H](CCCNC(N)=O)NC(=O)[C@H](Cc3ccc(-c4ccccc4)cc3)NC(=O)[C@H](C(C)C)NC2=O)c1 [Compound 1057] ({CH2CO}-[Dap]Y(Carboxymethyl)D[Phe(3-Me)]V[Bip][Cit][Orn][dL][Dab][Cha]VTCA[Dap][Aun]-OH; thioether N-14)	15.9 nM
Cc1cccc(C[C@@H]2NC(=O)[C@H](CC(=O)O)NC(=O)[C@H](Cc3ccc(OCC(=O)O)cc3)NC(=O)[C@H](Cc3ccc(OCC(=O)O)cc3)NC(=O)CSC[C@@H](C(=O)N[C@@H](CCCCN)C(=O)NCCCCCCCCCCC(=O)O)NC(=O)[C@H](CO)NC(=O)[C@H](C(C)C)NC(=O)[C@H](CC3CCCCC3)NC(=O)[C@H](CCN)NC(=O)[C@@H](CC(C)C)NC(=O)[C@H](CCCN)NC(=O)[C@H](C(C)C)NC(=O)[C@H](Cc3ccc(-c4ccccc4)cc3)NC(=O)[C@H](CC(C)C)NC2=O)c1 [Compound 1058] ({CH2CO}-Y(Carboxymethyl)Y(Carboxymethyl)D[Phe(3-Me)]L[Bip]V[Orn][dL][Dab][Cha]VSCK[Aun]-OH; thioether N-14)	57.2 nM
Cc1cccc(C[C@@H]2NC(=O)[C@H](CC(=O)O)NC(=O)[C@H](Cc3ccc(OCC(=O)O)cc3)NC(=O)[C@H](Cc3ccc(OCC(=O)O)cc3)NC(=O)CSC[C@@H](C(=O)N[C@@H](CCCN)C(=O)NCCCCCCCCCCC(=O)O)NC(=O)[C@H](CO)NC(=O)[C@H](C(C)C)NC(=O)[C@H](CC3CCCCC3)NC(=O)[C@H](CCN)NC(=O)[C@@H](CC(C)C)NC(=O)[C@H](CCCN)NC(=O)[C@H](C(C)C)NC(=O)[C@H](Cc3ccc(-c4ccccc4)cc3)NC(=O)[C@H](CC(C)C)NC2=O)c1 [Compound 1059] ({CH2CO}-Y(Carboxymethyl)Y(Carboxymethyl)D[Phe(3-Me)]L[Bip]V[Orn][dL][Dab][Cha]VSC[Orn][Aun]-OH; thioether N-14)	48.6 nM
Cc1cccc(C[C@@H]2NC(=O)[C@H](CC(=O)O)NC(=O)[C@H](Cc3ccc(OCC(=O)O)cc3)NC(=O)[C@H](Cc3ccc(OCC(=O)O)cc3)NC(=O)CSC[C@@H](C(=O)N[C@@H](CCN)C(=O)NCCCCCCCCCCC(=O)O)NC(=O)[C@H](CO)NC(=O)[C@H](C(C)C)NC(=O)[C@H](CC3CCCCC3)NC(=O)[C@H](CCN)NC(=O)[C@@H](CC(C)C)NC(=O)[C@H](CCCN)NC(=O)[C@H](C(C)C)NC(=O)[C@H](Cc3ccc(-c4ccccc4)cc3)NC(=O)[C@H](CC(C)C)NC2=O)c1 [Compound 1060] ({CH2CO}-Y(Carboxymethyl)Y(Carboxymethyl)D[Phe(3-Me)]L[Bip]V[Orn][dL][Dab][Cha]VSC[Dab][Aun]-OH; thioether N-14)	89.8 nM
Cc1cccc(C[C@@H]2NC(=O)[C@H](CC(=O)O)NC(=O)[C@H](Cc3ccc(OCC(=O)O)cc3)NC(=O)[C@H](Cc3ccc(OCC(=O)O)cc3)NC(=O)CSC[C@@H](C(=O)N[C@@H](CN)C(=O)NCCCCCCCCCCC(=O)O)NC(=O)[C@H](CO)NC(=O)[C@H](C(C)C)NC(=O)[C@H](CC3CCCCC3)NC(=O)[C@H](CCN)NC(=O)[C@@H](CC(C)C)NC(=O)[C@H](CCCN)NC(=O)[C@H](C(C)C)NC(=O)[C@H](Cc3ccc(-c4ccccc4)cc3)NC(=O)[C@H](CC(C)C)NC2=O)c1 [Compound 1061] ({CH2CO}-Y(Carboxymethyl)Y(Carboxymethyl)D[Phe(3-Me)]L[Bip]V[Orn][dL][Dab][Cha]VSC[Dap][Aun]-OH; thioether N-14)	56.2 nM
Cc1cccc(C[C@@H]2NC(=O)[C@H](CC(=O)O)NC(=O)[C@H](Cc3ccc(OCC(=O)O)cc3)NC(=O)[C@H](CN)NC(=O)CSC[C@@H](C(=O)N[C@@H](CCN)C(=O)NCCCCCCCCCCC(=O)O)NC(=O)[C@H]([C@@H](C)O)NC(=O)[C@H](C(C)C)NC(=O)[C@H](CC3CCCCC3)NC(=O)[C@H](CCN)NC(=O)[C@@H](CC(C)C)NC(=O)[C@H](CCCN)NC(=O)[C@H](CCCNC(N)=O)NC(=O)[C@H](Cc3ccc(-c4ccccc4)cc3)NC(=O)[C@H](C(C)C)NC2=O)c1 [Compound 1064] ({CH2CO}-[Dap]Y(Carboxymethyl)D[Phe(3-Me)]V[Bip][Cit][Orn][dL][Dab][Cha]VTC[Dab][Aun]-OH; thioether N-14)	16.3 nM
Cc1cccc(C[C@@H]2NC(=O)[C@H](CC(=O)O)NC(=O)[C@H](Cc3ccc(OCC(=O)O)cc3)NC(=O)[C@H](CN)NC(=O)CSC[C@@H](C(=O)N[C@@H](CN)C(=O)NCCCCCCCCCCC(=O)O)NC(=O)[C@H]([C@@H](C)O)NC(=O)[C@H](C(C)C)NC(=O)[C@H](CC3CCCCC3)NC(=O)[C@H](CCN)NC(=O)[C@@H](CC(C)C)NC(=O)[C@H](CCCN)NC(=O)[C@H](CCCNC(N)=O)NC(=O)[C@H](Cc3ccc(-c4ccccc4)cc3)NC(=O)[C@H](C(C)C)NC2=O)c1 [Compound 1065] ({CH2CO}-[Dap]Y(Carboxymethyl)D[Phe(3-Me)]V[Bip][Cit][Orn][dL][Dab][Cha]VTC[Dap][Aun]-OH; thioether N-14)	13.5 nM
Cc1cccc(C[C@@H]2NC(=O)[C@H](CC(=O)O)NC(=O)[C@H](Cc3ccc(OCC(=O)O)cc3)NC(=O)[C@H](CN)NC(=O)CSC[C@@H](C(=O)N[C@@H](C)C(=O)N[C@@H](CCCCN)C(=O)NCC(=O)NCCCCCCCCCCC(=O)O)NC(=O)[C@H]([C@@H](C)O)NC(=O)[C@H](C(C)C)NC(=O)[C@H](CC3CCCCC3)NC(=O)[C@H](CCN)NC(=O)[C@@H](CC(C)C)NC(=O)[C@H](CCCN)NC(=O)[C@H](CCCNC(N)=O)NC(=O)[C@H](Cc3ccc(-c4ccccc4)cc3)NC(=O)[C@H](C(C)C)NC2=O)c1 [Compound 1066] ({CH2CO}-[Dap]Y(Carboxymethyl)D[Phe(3-Me)]V[Bip][Cit][Orn][dL][Dab][Cha]VTCAKG[Aun]-OH; thioether N-14)	13.9 nM
Cc1cccc(C[C@@H]2NC(=O)[C@H](CC(=O)O)NC(=O)[C@H](Cc3ccc(OCC(=O)O)cc3)NC(=O)[C@H](Cc3ccc(OCC(=O)O)cc3)NC(=O)CSC[C@@H](C(=O)NCC(=O)N[C@@H](CCCN)C(=O)NCC(=O)NCCCCCCCCCCC(=O)O)NC(=O)[C@H](CO)NC(=O)[C@H](C(C)C)NC(=O)[C@H](CC3CCCCC3)NC(=O)[C@H](CCN)NC(=O)[C@@H](CC(C)C)NC(=O)[C@H](CCCN)NC(=O)[C@H](C(C)C)NC(=O)[C@H](Cc3ccc(-c4ccccc4)cc3)NC(=O)[C@H](CC(C)C)NC2=O)c1 [Compound 1067] ({CH2CO}-Y(Carboxymethyl)Y(Carboxymethyl)D[Phe(3-Me)]L[Bip]V[Orn][dL][Dab][Cha]VSCG[Orn]G[Aun]-OH; thioether N-14)	28.5 nM
Cc1cccc(C[C@@H]2NC(=O)[C@H](CC(=O)O)NC(=O)[C@H](Cc3ccc(OCC(=O)O)cc3)NC(=O)[C@H](CN)NC(=O)CSC[C@@H](C(=O)N[C@@H](C)C(=O)N[C@@H](CCCN)C(=O)NCC(=O)NCCCCCCCCCCC(=O)O)NC(=O)[C@H]([C@@H](C)O)NC(=O)[C@H](C(C)C)NC(=O)[C@H](CC3CCCCC3)NC(=O)[C@H](CCN)NC(=O)[C@@H](CC(C)C)NC(=O)[C@H](CCCN)NC(=O)[C@H](CCCNC(N)=O)NC(=O)[C@H](Cc3ccc(-c4ccccc4)cc3)NC(=O)[C@H](C(C)C)NC2=O)c1 [Compound 1068] ({CH2CO}-[Dap]Y(Carboxymethyl)D[Phe(3-Me)]V[Bip][Cit][Orn][dL][Dab][Cha]VTCA[Orn]G[Aun]-OH; thioether N-14)	10.4 nM
